Source: patent US20050170028A1, “Polysaccharide extract from Lycium barbarum as neuroprotective agent against beta-amyloid peptide neurotoxicity” (priority 2004, published 2005)

Assays:
Type in all cases: cell-based
caspase-3 = assay: colorimetric caspase-3 activity assay in neurons exposed to Aβ-peptide
Description: Caspase-3 has long been regarded as an index for neuronal apoptosis. Therefore, the colorimetric caspase-3 activity assay was performed at the concentrations stated in FIG. 5, and neuronal apoptosis was determined by the colorimetric caspase-3 activity assay by measuring the absorbance (at 405 nm) of the yellow product (pNA) cleaved from the substrate. Results (***p<0.001 vs. the group treated with Aβ-peptide alone, by one-way ANOVA, Tukey test) are expressed as mean±SE from at least three independent experiments.
Caspase-3 is a general apoptosis marker. For apoptosis analysis, the colorimetric caspase-3 activity assay (at 405 nm) was performed.
It is also a well-known Western medicine for the treatment of manic-depressive bi-polar disorder. […] Neurons were pretreated with either LiCl (2 mM to 20 mM) or LBA (0.1 μg/ml to 500μ/ml) for 1 hour, and then exposed to Aβ25-35 peptide (25 μM) for 24 hours. Caspase-3 activity assay was used to determine the protective effects against Aβ-peptide toxicity. […] The unit of concentration of LiCl was converted from mM to μ/ml for the purpose of comparison with LBA. […] The toxicity decreased when the concentration of LiCi increased and it reached the lowest value (8.5%) when LiCi was used at 850 μ/ml (20 mM). Accordingly, LiCl could effectively reduce Aβ-peptide-stimulated caspase-3 activity in the range of 340 μg/ml to 850 μg/ml (i.e. 8 mM to 20 mM). LBA exerted protective effects for neurons against Aβ-peptide toxicity from very low concentration to high concentration (0.1 μg/ml to 500 μg/ml).
It has been reported that specific inhibitor of JNK, SP600125, also exerts protection for neurons against Aβ-peptide toxicity. We therefore compared the therapeutic window of SP600125 with LBA to elucidate their effectiveness in neuroprotection. Neurons were pretreated with either SP600125 (5 μM to 20 μM) or LBA (0.1 μg/ml to 500 μg/ml) for 1 hour, and then exposed to Aβ-peptide (25 μM) for 16 hours. Caspase-3 activity assay was done to investigate their protective effects against Aβ-peptide toxicity. Thus, after treatment, colorimetric caspase-3 activity assay was done to examine the level of apoptosis. Caspase-3 activity was expressed as % toxicity. Results are expressed as mean±SE from at least three independent experiments. % toxicity is calculated as: (s.a.of Aβ-/LBA-/SP-treated−s.a.control)÷(s.a.Aβ-treated−s.a.control). […] The unit of concentration of SP600125 was converted from […] to μg/ml for the purpose of comparison with LBA. […] The toxicity was 100% when using SP600125 at more than 20 μM (data not shown). SP600125 was effective from 1.1 μg/ml to 4.4 μ/ml; the range is very narrow when compared with that of LBA.
(§1) We separated different fractions by ion-exchange chromatography. Activity of caspase-3 served as an index for neuronal apoptosis. […] The biochemical analysis of caspase-3 activity was confirmed by morphological examination (FIG. 17). Upon exposure to Aβ peptide, neurites were broken and neurons were undergoing apoptosis.
For apoptosis analysis, the activity of caspase-3 serves as an index for neuronal apoptosis. […] A hundred microgram per […] exerted a nearly 100% neuroprotective effects (FIG. 20).

[1] = test system: neurons exposed to Aβ peptide; assay: morphological changes of neurons exposed to Aβ-peptide; conditions: LBA 100 μg/ml, LBB 500 μg/ml, heparin 1 μM; 1 h, then Aβ peptide 25 μM 24 h
Description: Since LBA and LBB contain both carbohydrate and amino acid, we use heparin to make a comparison of their protective effects. Neurons were pre-incubated with either heparin (1 μM), LBA (100 μg/ml) or LBB (500 μg/ml) for 1 hour, followed by a 24-hour exposure to Aβ peptide (25 μM). The morphology of neurons after different treatments is shown in FIG. 12, in which (A) Control, (B) Aβ-peptide alone, (C) LBA (100 μg/ml), (D) LBA (100 μg/ml)+Aβ, (E) LBB (500 μg/ml), (F) LBB (500 μg/ml)+Aβ, (G) Heparin (1 μM) and (H) Heparin (1 μM)+Aβ. […] In B, neurons treated with Aβ-peptide for 24 hours undergo apoptosis, as shown by the destruction of the fine neurite network. […] G and H were neurons pre-incubated with heparin, and then without and with Aβ-peptide exposure. […] Based on the morphology of neurons, the mode of neuroprotection of LBA and LBB is somewhat different to that of heparin.
as §1

caspase-2 = assay: colorimetric caspase-2 activity assay in neurons exposed to Aβ-peptide; conditions: Aβ-peptide alone
Excerpt: Caspase-2 is an important index for neuronal apoptosis for β-amyloid peptide neurotoxicity. It has been reported that Aβ-peptide triggered activation of caspase-2. […] Therefore, we used the colorimetric method to determine caspase-2 activity. For caspase-2 activity, the trend was similar to that of caspase-3. Neurons exposed to Aβ-peptide triggered a 1.6-fold increase in caspase-2 activity.
Caspase-2 is an important index for neuronal apoptosis for β-amyloid peptide neurotoxicity. For caspase-2 activity, the trend was similar to that of caspase-3. We also used colorimetric method to determine caspase-2 activity.

[2] = test system: neurons exposed to Aβ25-35 peptide; assay: LDH release cytotoxicity assay in neurons exposed to Aβ-peptide; conditions: Aβ25-35 peptide 25 μM alone, 24 h; control 24.7±0.45%; mean±SE
Description: To examine the effects of the aqueous extract LBA from Lycium barbarum on Aβ-peptide-induced neurotoxicity, neurons were pretreated with LBA (ranging from 0.1 μg/ml to 500 μg/ml) for 1 hour, followed by a 24-hour exposure to Aβ25-35 peptide (25 μM). For cytotoxicity analysis, the extracellular concentration of LDH was measured. […] For the control group, the release of LDH representing natural neuronal death was 24.7±0.45% of the total LDH release. Neurons exposed to Aβ-peptide increased the release of LDH to 38.0±0.92%.
The effects of the basic extract LBB from Lycium barbarum on Aβ-peptide-induced neurotoxicity were also investigated using the same approaches as for LBA. For cytotoxicity analysis, the extracellular concentration of LDH was measured.

[Cl-].[Li+] [LiCl, Lithium Chloride]
caspase-3 activity as percent toxicity (caspase-3; 850 μ/ml (20 mM), 1 h pretreatment, Aβ25-35 25 μM 24 h, lowest value): 8.5% | toxicity to neurons (caspase-3 percent toxicity) (caspase-3; about 85 μg/ml (2 mM), Aβ25-35 25 μM 24 h): toxic to neurons

heparin
morphology of neurons after pre-incubation and Aβ peptide [1]: elongated neurons

Aβ-peptide: β-amyloid peptide fragment 25-35 used at 25 μM as the neurotoxic challenge (GSNKGAIIGLM; Amyloid-beta protein 42; UniProt P05067 696-706, looked up, fragment)
caspase-3 activity (caspase-3; Aβ-peptide treated group, no extract): 2.13 fold | caspase-2 activity (caspase-2): 1.6 fold | release of LDH, percentage of total LDH release [2]: 38.0±0.92%

Oc1c2ccccc2c2c3c(cccc13)N=N2 [SP600125]
caspase-3 activity as % toxicity (caspase-3; 1.1 μg/ml (5 μM), 1 h pretreatment, Aβ-peptide 25 μM 16 h): 23.8% | caspase-3 activity as % toxicity (caspase-3; 4.4 μg/ml (20 μM), 1 h pretreatment, Aβ-peptide 25 μM 16 h): 69.3% | caspase-3 activity as % toxicity (caspase-3; more than 20 μM, data not shown): 100%
